{"source": "ChEMBL document CHEMBL3045943", "about": "“Novel N-aryl(alkaryl)-2-[(3-R-2-oxo-2H-[1,2,4]triazino[2,3-c]quinazoline-6-yl)thio]acetamides: synthesis, cytotoxicity, anticancer activity, COMPARE analysis and docking” (2013)", "type_in_all_cases": "functional", "key": {"CAKI-1": {"system": "CAKI-1", "assay": "Cytotoxicity against Homo sapiens (human) Caki1 cells assessed as cell growth at 10 uM after 48 hr by SRB assay relative to control", "conditions": "CAKI-1, 48 h, read-out: Activity"}, "NCI-H460 [1]": {"system": "NCI-H460", "assay": "Cytotoxicity against Homo sapiens (human) NCI-H460 cells after 48 hr by SRB assay", "conditions": "NCI-H460, 48 h"}, "BT-549": {"system": "BT-549", "assay": "Cytotoxicity against Homo sapiens (human) BT549 cells assessed as cell growth at 10 uM after 48 hr by SRB assay relative to control", "conditions": "BT-549, 48 h, read-out: Activity"}, "[2]": {"system": "Photobacterium leiognathi", "assay": "Growth inhibition of Photobacterium leiognathi Sh1 assessed as bio-luminescence at 0.025 mg/ml after 16 to 18 hr by chronic action test relative to control", "parameters": "scale not given: the % may be the effect or the level left"}, "COLO 205": {"system": "COLO 205", "assay": "Cytotoxicity against Homo sapiens (human) COLO205 cells assessed as cell growth at 10 uM after 48 hr by SRB assay relative to control", "conditions": "COLO 205, 48 h, read-out: Activity"}, "U-251": {"system": "U-251", "assay": "Cytotoxicity against Homo sapiens (human) U251 cells assessed as cell growth at 10 uM after 48 hr by SRB assay relative to control", "conditions": "U-251, 48 h, read-out: Activity"}, "[3]": {"system": "Photobacterium leiognathi", "assay": "Growth inhibition of Photobacterium leiognathi Sh1 assessed as bio-luminescence at 0.1 mg/ml after 10 min by acute action test relative to control", "parameters": "scale not given: the % may be the effect or the level left"}, "SK-MEL-5 [4]": {"system": "SK-MEL-5", "assay": "Cytotoxicity against Homo sapiens (human) SK-MEL-5 cells after 48 hr by SRB assay", "conditions": "SK-MEL-5, 48 h"}, "MDA-MB-231": {"system": "MDA-MB-231", "assay": "Cytotoxicity against Homo sapiens (human) MDA-MB-231 cells assessed as cell growth at 10 uM after 48 hr by SRB assay relative to control", "conditions": "MDA-MB-231, 48 h, read-out: Activity"}, "KM12": {"system": "KM12", "assay": "Cytotoxicity against Homo sapiens (human) KM12 cells assessed as cell growth at 10 uM after 48 hr by SRB assay relative to control", "conditions": "KM12, 48 h, read-out: Activity"}, "A498 [5]": {"system": "A498", "assay": "Cytotoxicity against Homo sapiens (human) A498 cells after 48 hr by SRB assay", "conditions": "A498, 48 h"}, "SK-MEL-5 [6]": {"system": "SK-MEL-5", "assay": "Cytotoxicity against Homo sapiens (human) SK-MEL-5 cells assessed as cell growth at 10 uM after 48 hr by SRB assay relative to control", "conditions": "SK-MEL-5, 48 h, read-out: Activity"}, "HCT-116": {"system": "HCT-116", "assay": "Cytotoxicity against Homo sapiens (human) HCT116 cells assessed as cell growth at 10 uM after 48 hr by SRB assay relative to control", "conditions": "HCT-116, 48 h, read-out: Activity"}, "UO-31": {"system": "UO-31", "assay": "Cytotoxicity against Homo sapiens (human) UO31 cells assessed as cell growth at 10 uM after 48 hr by SRB assay relative to control", "conditions": "UO-31, 48 h, read-out: Activity"}, "ACHN": {"system": "ACHN", "assay": "Cytotoxicity against Homo sapiens (human) ACHN cells assessed as cell growth at 10 uM after 48 hr by SRB assay relative to control", "conditions": "read-out: Activity"}, "[7]": {"system": "Photobacterium leiognathi", "assay": "Growth inhibition of Photobacterium leiognathi Sh1 assessed as bio-luminescence at 0.025 mg/ml after 10 min by acute action test relative to control", "parameters": "scale not given: the % may be the effect or the level left"}, "[8]": {"system": "Photobacterium leiognathi", "assay": "Growth inhibition of Photobacterium leiognathi Sh1 assessed as bio-luminescence at 0.25 mg/ml after 10 min by acute action test relative to control", "parameters": "scale not given: the % may be the effect or the level left"}, "HOP-62": {"system": "HOP-62", "assay": "Cytotoxicity against Homo sapiens (human) HOP62 cells after 48 hr by SRB assay", "conditions": "HOP-62, 48 h"}, "NCI-H522": {"system": "NCI-H522", "assay": "Cytotoxicity against Homo sapiens (human) NCI-H522 cells after 48 hr by SRB assay", "conditions": "NCI-H522, 48 h"}, "NCI-H460 [9]": {"system": "NCI-H460", "assay": "Cytotoxicity against Homo sapiens (human) NCI-H460 cells assessed as cell growth at 10 uM after 48 hr by SRB assay relative to control", "conditions": "NCI-H460, 48 h, read-out: Activity"}, "A498 [10]": {"system": "A498", "assay": "Cytotoxicity against Homo sapiens (human) A498 cells assessed as cell growth at 10 uM after 48 hr by SRB assay relative to control", "conditions": "A498, 48 h, read-out: Activity"}, "SF-539": {"system": "SF-539", "assay": "Cytotoxicity against Homo sapiens (human) SF539 cells assessed as cell growth at 10 uM after 48 hr by SRB assay relative to control", "conditions": "SF-539, 48 h, read-out: Activity"}, "SW-620": {"system": "SW-620", "assay": "Cytotoxicity against Homo sapiens (human) SW620 cells assessed as cell growth at 10 uM after 48 hr by SRB assay relative to control", "conditions": "SW-620, 48 h, read-out: Activity"}, "SF-268": {"system": "SF-268", "assay": "Cytotoxicity against Homo sapiens (human) SF268 cells assessed as cell growth at 10 uM after 48 hr by SRB assay relative to control", "conditions": "SF-268, 48 h, read-out: Activity"}, "HT-29": {"system": "HT-29", "assay": "Cytotoxicity against Homo sapiens (human) HT-29 cells assessed as cell growth at 10 uM after 48 hr by SRB assay relative to control", "conditions": "HT-29, 48 h, read-out: Activity"}, "SNB-75": {"system": "SNB-75", "assay": "Cytotoxicity against Homo sapiens (human) SNB75 cells assessed as cell growth at 10 uM after 48 hr by SRB assay relative to control", "conditions": "SNB-75, 48 h, read-out: Activity"}, "[11]": {"system": "Photobacterium leiognathi", "assay": "Growth inhibition of Photobacterium leiognathi Sh1 assessed as bio-luminescence at 0.1 mg/ml after 16 to 18 hr by chronic action test relative to control", "parameters": "scale not given: the % may be the effect or the level left"}, "[12]": {"system": "Photobacterium leiognathi", "assay": "Growth inhibition of Photobacterium leiognathi Sh1 assessed as bio-luminescence at 0.25 mg/ml after 16 to 18 hr by chronic action test relative to control", "parameters": "scale not given: the % may be the effect or the level left"}, "[13]": {"conditions": "read-out: pLC50 (the source's name) (converted)"}}, "data": [{"smiles": "O=C(CSc1nc2ccccc2c2nc(=O)c(-c3ccccc3)nn12)NCc1ccc(F)cc1", "values": [{"measurement": "growth at 10 µM", "setting": "CAKI-1", "result": -5.36, "unit": "%"}, {"measurement": "GI50", "setting": "NCI-H460 [1]", "result": 2.57, "unit": "µM"}, {"measurement": "CC50", "setting": "NCI-H460 [1]; [13]", "result": "> 100", "unit": "µM"}, {"measurement": "TGI", "setting": "NCI-H460 [1]; read-out: pTGI", "result": "> 100", "unit": "µM"}, {"measurement": "growth at 10 µM", "setting": "BT-549", "result": 45.9, "unit": "%"}, {"measurement": "Activity", "setting": "[2]", "result": 90.9, "unit": "%"}, {"measurement": "growth at 10 µM", "setting": "COLO 205", "result": 30.8, "unit": "%"}, {"measurement": "growth at 10 µM", "setting": "U-251", "result": 19.9, "unit": "%"}, {"measurement": "Activity", "setting": "[3]", "result": 78.8, "unit": "%"}, {"measurement": "GI50", "setting": "SK-MEL-5 [4]", "result": 3.02, "unit": "µM"}, {"measurement": "LC50", "setting": "SK-MEL-5 [4]", "result": "> 100", "unit": "µM"}, {"measurement": "TGI", "setting": "SK-MEL-5 [4]; read-out: pTGI", "result": "> 100", "unit": "µM"}, {"measurement": "growth at 10 µM", "setting": "MDA-MB-231", "result": 15.7, "unit": "%"}, {"measurement": "growth at 10 µM", "setting": "KM12", "result": 9.97, "unit": "%"}, {"measurement": "GI50", "setting": "A498 [5]", "result": 1.12, "unit": "µM"}, {"measurement": "LC50", "setting": "A498 [5]", "result": "> 100", "unit": "µM"}, {"measurement": "TGI", "setting": "A498 [5]; read-out: pTGI (converted)", "result": 34.7, "unit": "µM"}, {"measurement": "growth at 10 µM", "setting": "SK-MEL-5 [6]", "result": 17.9, "unit": "%"}, {"measurement": "growth at 10 µM", "setting": "HCT-116", "result": 38.9, "unit": "%"}, {"measurement": "growth at 10 µM", "setting": "UO-31", "result": 12.7, "unit": "%"}, {"measurement": "growth at 10 µM", "setting": "ACHN", "result": 43.7, "unit": "%"}, {"measurement": "Activity", "setting": "[7]", "result": 77.8, "unit": "%"}, {"measurement": "Activity", "setting": "[8]", "result": 91.7, "unit": "%"}, {"measurement": "GI50", "setting": "HOP-62", "result": 1.74, "unit": "µM"}, {"measurement": "LC50", "setting": "HOP-62", "result": "> 100", "unit": "µM"}, {"measurement": "TGI", "setting": "HOP-62; read-out: pTGI (converted)", "result": 6.92, "unit": "µM"}, {"measurement": "GI50", "setting": "NCI-H522", "result": 2.51, "unit": "µM"}, {"measurement": "CC50", "setting": "NCI-H522; [13]", "result": "> 100", "unit": "µM"}, {"measurement": "TGI", "setting": "NCI-H522; read-out: pTGI (converted)", "result": 31.6, "unit": "µM"}, {"measurement": "growth at 10 µM", "setting": "NCI-H460 [9]", "result": -25.4, "unit": "%"}, {"measurement": "growth at 10 µM", "setting": "A498 [10]", "result": 24.8, "unit": "%"}, {"measurement": "growth at 10 µM", "setting": "SF-539", "result": 30.8, "unit": "%"}, {"measurement": "growth at 10 µM", "setting": "SW-620", "result": 45.7, "unit": "%"}, {"measurement": "growth at 10 µM", "setting": "SF-268", "result": 51.2, "unit": "%"}, {"measurement": "growth at 10 µM", "setting": "HT-29", "result": 30.9, "unit": "%"}, {"measurement": "growth at 10 µM", "setting": "SNB-75", "result": 44.3, "unit": "%"}, {"measurement": "Activity", "setting": "[11]", "result": 76.9, "unit": "%"}, {"measurement": "Activity", "setting": "[12]", "result": 166.7, "unit": "%"}]}]}
